# Test system: mTOR
# Test: Immunoblot of S6 phosphorylation in xenograft tumors
# Assay type: in vivo, SCID mice
# Details: parental and knockdown xenografts, 0.1 mg/kg, day 5 of treatment
# Method: FIGS. 1A-1E. Effects of VHL knockdown on sensitivity to CCI-779. (a) Immunoblotting of lysates derived from shRNA and control (empty vector, V) in SN12C, using antibodies against VHL (both isoforms detected), HIF-1α, HIF-2α, GLUT-1, CA-IX and β-Actin (as a loading control). (b) SN12C-CSCG and SN12C-VHLshRNA cells (1×10^5) were cultured in 10% serum rich media, in the presence of vehicle, 1 or 10 nM of CCI-779 for 5 days. Cell growth was measured by cell counts (n=3). […] (c) SN12C-CSCG (C1) and SN12C-CSCG shVHL RNA (C2) cells were injected into SCID mice at a dose of 1×10^6 cells per mouse (n=30). […] Phosphorylated-S6 protein in SN12C-CSCG and SN12C-VHL shRNA xenograft tumors treated with vehicle or 0.1 mg/kg of CCI-779 was measured by immunoblot C3 and C4). […]
# Cells and xenograft tumors were lysed in ECB lysis buffer (see, e.g. Kondo et al., Cancer Cell 1, 237-46 (2002)) or high-detergent buffer (2% SDS), (see, e.g. Chen et al., Nat Med 10, 33-9 (2004)), respectively, supplemented with complete protease and phosphatase inhibitor cocktails (Calbiochem). […] Bound antibody was detected using enhanced chemiluminescence (ECL, Amersham). For VEGF ELISA quantification, cells were plated in 6 well plates (1×10^5 per well). […] Thirty-six hours later, VEGF ELISA (R&D Systems) was performed according to the manufacturer's instructions, using a Fisher Plate reader. […]
structure (smiles),measurement,value
CO[C@H]1C[C@@H]2CC[C@@H](C)[C@@](O)(O2)C(=O)C(=O)N2CCCC[C@H]2C(=O)O[C@H]([C@H](C)C[C@@H]2CC[C@@H](OC(=O)C(C)(CO)CO)[C@H](OC)C2)CC(=O)[C@H](C)/C=C(\C)[C@@H](O)[C@@H](OC)C(=O)[C@H](C)C[C@H](C)/C=C/C=C/C=C/1C [CCI-779],S6 phosphorylation in xenograft tumors,decrease in S6 phosphorylation
